{"source": "patent US10758549B2", "about": "“Compositions of obeticholic acid and methods of use” (Intercept Pharmaceuticals, Inc., priority 2015, dated 2020)", "key": {"[1]": {"experiment": "Solubility of OCA in biologically relevant media at 37° C.", "assay_type": "physicochemical", "settings": "for solubility: physiologically relevant dissolution media", "text": "Solubility Studies of OCA in Biological Media."}, "[2]": {"experiment": "Equilibrium solubility of OCA in various buffers at 37° C.", "assay_type": "physicochemical", "settings": "for solubility: aqueous buffer, 37 °C, thermodynamic from solid", "method": "Solubility Studies of OCA in Various Buffers. A study was performed to screen different media of various pH over the pH range 1.2-10.0, incorporating the physiological pH range (1.2-6.8) for immediate release tablets."}, "[3]": {"experiment": "Physiologic pharmacokinetic model of OCA (population PK fit and simulations)", "design": "species or system human", "method": "Plasma levels of OCA and its conjugates were measured in healthy subjects and cirrhotic patients with varying degrees of hepatic impairment. A physiologic pharmacokinetic model for OCA was developed to quantitatively describe the absorption, distribution, metabolism, and excretion of OCA in patients with and without hepatic impairment. The model was based on a published multi-compartment PK model for CDCA, and consisted of systemic, hepatobiliary, and intestinal systems. The model was used to simulate the pathophysiological abnormalities caused by cirrhosis including decreased hepatic uptake, portal-systemic shunting, decreased liver volume, and differences in amino acid conjugation.\nThis examples describes development of a physiologic PK model to quantitatively describe the absorption, distribution, metabolism, and excretion of OCA. In addition, the model was used to define the effects of hepatic impairment to predict the systemic and liver exposure to OCA in subjects with various degrees of liver impairment relative to healthy subjects with normal liver function. The model was developed based on 3 studies in healthy volunteers and 2 studies in patients with varying degrees of hepatic impairment […].\nData from was used to develop the model in healthy subjects (n=160) and then adjust for hepatic impairment (n=32) using the data from the above Examples. After development, the model was validated with data sourced from healthy subjects and cirrhotic patients.\nThe data used in model development included subject identifiers, time of dosing and sample collection, plasma drug concentrations (OCA, glyco-OCA, and tauro-OCA), dose amount, disease status (e.g., Child-Pugh score), and meal consumption information. Study participants received standardized meals at specified times during inpatient observation. Gallbladder contraction was assumed to last 90 minutes after the start of a meal. Drug concentrations below the limit of quantification (BLQ) were imputed to half of the lower limit of quantification (LLOQ). Observed and BLQ concentrations of OCA, glyco-OCA, and tauro-OCA associated with samples drawn prior to the first dose were excluded from the analyses.\nA number of structural modifications were made to the base CDCA model in order to adapt it for use with OCA. For simplification, a single space was used to represent the gut (small and large intestines). Since OCA is an exogenous molecule, it was assumed that there was no endogenous synthesis and an absorption compartment with a first-order transfer coefficient (Ka) was included to represent the administration and absorption kinetics of an oral OCA dose. Based on steric hindrance by the 6-ethyl group of OCA, no bacterial 7-alpha dehydroxylation biotransformation activity (i.e., CDCA to lithocholic acid) was included in the model. Compartment volumes in the model were fixed to physiological values from the base CDCA model. The OCA model used the physiological flow values for blood, bile and gastrointestinal transit from the original physiologic PK model for CDCA, with the exception of flows from bile duct to gallbladder and from bile duct to gut. The physiological values from the base model led to poor predictions and may not be applicable due to the simplification of the enteral system into a unified gut compartment. The biotransformation and transport rates in the model, being dependent on chemical entity structure, were estimated by fitting the model to the plasma concentration time profiles of OCA, glyco-OCA, and tauro-OCA.\nThe PK model was first developed using the OCA, glyco-OCA, and tauro-OCA plasma concentration time profiles from healthy volunteers with normal hepatic function. Model parameter estimates related to healthy physiology were then held constant while the PK model was further developed using OCA, glyco-OCA, and tauro-OCA plasma concentration time profiles from patients with hepatic impairment (Child-Pugh scores A, B, and C). […]"}, "CYP2C8": {"target": "T1, CYP2C8 (Homo sapiens, UniProt P10632)", "T1 sequence (P10632 1-490)": "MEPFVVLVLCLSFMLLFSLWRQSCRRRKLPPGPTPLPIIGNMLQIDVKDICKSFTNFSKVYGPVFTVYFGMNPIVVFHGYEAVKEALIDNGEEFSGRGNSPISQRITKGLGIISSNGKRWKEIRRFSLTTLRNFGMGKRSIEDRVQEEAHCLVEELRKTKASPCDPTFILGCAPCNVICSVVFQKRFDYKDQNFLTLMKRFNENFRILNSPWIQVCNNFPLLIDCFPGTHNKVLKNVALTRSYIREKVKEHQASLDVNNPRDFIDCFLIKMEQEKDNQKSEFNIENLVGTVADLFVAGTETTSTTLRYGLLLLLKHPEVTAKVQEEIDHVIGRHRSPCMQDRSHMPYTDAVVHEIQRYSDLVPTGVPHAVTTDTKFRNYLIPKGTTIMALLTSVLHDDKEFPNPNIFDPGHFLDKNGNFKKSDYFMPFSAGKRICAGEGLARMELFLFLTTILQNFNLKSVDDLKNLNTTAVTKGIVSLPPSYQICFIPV", "experiment": "In vitro studies: CYP inhibition", "assay_type": "in vitro ADME"}, "Plasma protein binding": {"experiment": "Plasma protein binding", "assay_type": "in vitro ADME", "settings": "human"}, "[4]": {"settings": "exponent on t10, model estimate"}, "[5]": {"settings": "normal hepatic function, model estimate"}}}
{"smiles": "CC[C@H]1[C@@H](O)[C@@H]2[C@H](CC[C@]3(C)[C@@H]([C@H](C)CCC(=O)O)CC[C@@H]23)[C@@]2(C)CC[C@@H](O)C[C@@H]12", "note": "[OCA, 3α,7α-dihydroxy-6α-ethyl-5β-cholan-24-oic acid]", "values": [{"measurement": "USP Solubility Rating", "setting": "[1]; pH 1.2 (0.1N HCl)", "result": "Practically insoluble"}, {"measurement": "Solubility (mg/mL)", "setting": "[1]; pH 1.2 (0.1N HCl), 37° C.", "result": "<LOQ"}, {"measurement": "USP Solubility Rating", "setting": "[1]; pH 1.2 (FaSSGF)", "result": "Practically insoluble"}, {"measurement": "Solubility (mg/mL)", "setting": "[1]; pH 1.2 (FaSSGF), 37° C.", "result": "<LOQ"}, {"measurement": "USP Solubility Rating", "setting": "[1]; pH 4.5", "result": "Practically insoluble"}, {"measurement": "Solubility (mg/mL)", "setting": "[1]; pH 4.5, 37° C.", "result": "<LOQ"}, {"measurement": "USP Solubility Rating", "setting": "[1]; pH 5.0 (FeSSIF)", "result": "Freely soluble"}, {"measurement": "increase in OCA solubility", "setting": "[1]; pH 5.0 with taurocholate and lecithin (FeSSIF) vs. pH 5.1 acetate buffer alone", "result": 35, "unit": "fold"}, {"measurement": "USP Solubility Rating", "setting": "[1]; pH 6.5 (FaSSIF)", "result": "Freely soluble"}, {"measurement": "USP Solubility Rating", "setting": "[1]; pH 6.8", "result": "Freely soluble"}, {"measurement": "USP Solubility Rating", "setting": "[1]; pH 6.8 with surfactant", "result": "Freely soluble"}, {"measurement": "solubility", "setting": "[1]; aqueous buffer, pH 6.8 (proposed dissolution medium, sodium phosphate dibasic), 37° C.", "result": 220, "unit": "µg/mL"}, {"measurement": "solubility", "setting": "[1]; aqueous with cosolvent or surfactant or cyclodextrin, pH 6.8 with surfactant (polysorbate 80), 37° C.", "result": 590, "unit": "µg/mL"}, {"measurement": "solubility", "setting": "[1]; pH 5.0 (FeSSIF), 37° C.", "result": 820, "unit": "µg/mL"}, {"measurement": "solubility", "setting": "[1]; pH 6.5 (FaSSIF), 37° C.", "result": 640, "unit": "µg/mL"}, {"measurement": "solubility", "setting": "[2]; pH 4.1, aqueous buffer, pH 4.1 Acetate", "result": 3, "unit": "µg/mL"}, {"measurement": "solubility", "setting": "[2]; pH 5.1, aqueous buffer, pH 5.1 Acetate", "result": 23, "unit": "µg/mL"}, {"measurement": "solubility", "setting": "[2]; pH 6, aqueous buffer, pH 6.0 Phosphate", "result": 50, "unit": "µg/mL"}, {"measurement": "solubility", "setting": "[2]; pH 6.8, aqueous buffer, above pH 6.8", "result": "> 10", "unit": "µg/mL"}, {"measurement": "solubility", "setting": "[2]; pH 6.8, aqueous buffer, pH 6.8 Phosphate (50 mM sodium phosphate dibasic)", "result": 220, "unit": "µg/mL"}, {"measurement": "solubility", "setting": "[2]; pH 7, aqueous buffer, pH 7.0 Phosphate", "result": 462, "unit": "µg/mL"}, {"measurement": "solubility", "setting": "[2]; pH 8, aqueous buffer, pH 8.0 Phosphate", "result": 486, "unit": "µg/mL"}, {"measurement": "solubility", "setting": "[2]; pH 9, aqueous buffer, pH 9.0 Alkaline Borate", "result": 462, "unit": "µg/mL"}, {"measurement": "solubility", "setting": "[2]; pH 10, aqueous buffer, pH 10.0 Alkaline Borate", "result": 56, "unit": "µg/mL"}, {"measurement": "USP Solubility Rating", "setting": "[2]; pH 1.2 Hydrochloric acid", "result": "Practically"}, {"measurement": "USP Solubility Rating", "setting": "[2]; pH 2.0 Hydrochloric acid", "result": "Practically"}, {"measurement": "USP Solubility Rating", "setting": "[2]; pH 3.0 Acid Phthalate", "result": "Practically"}, {"measurement": "USP Solubility Rating", "setting": "[2]; pH 4.1 Acetate", "result": "Slightly soluble"}, {"measurement": "USP Solubility Rating", "setting": "[2]; pH 5.1 Acetate", "result": "Sparingly soluble"}, {"measurement": "USP Solubility Rating", "setting": "[2]; pH 6.0 Phosphate", "result": "Soluble"}, {"measurement": "USP Solubility Rating", "setting": "[2]; pH 6.8 Phosphate", "result": "Freely soluble"}, {"measurement": "USP Solubility Rating", "setting": "[2]; pH 7.0 Phosphate", "result": "Freely soluble"}, {"measurement": "USP Solubility Rating", "setting": "[2]; pH 8.0 Phosphate", "result": "Freely soluble"}, {"measurement": "USP Solubility Rating", "setting": "[2]; pH 9.0 Alkaline Borate", "result": "Freely soluble"}, {"measurement": "USP Solubility Rating", "setting": "[2]; pH 10.0 Alkaline Borate", "result": "Soluble"}, {"measurement": "Effect in Mild hepatic impairment in hepatic uptake of OCA and conjugates", "setting": "[3]; [4]", "result": "−0.132"}, {"measurement": "Effect in Moderate hepatic impairment in hepatic uptake of OCA and conjugates", "setting": "[3]; [4]", "result": "−1.86"}, {"measurement": "Effect in Severe hepatic impairment in hepatic uptake of OCA and conjugates", "setting": "[3]; [4]", "result": "−2.37"}, {"measurement": "Effect of Mild hepatic impairment on OCA tauro-conjugation", "setting": "[3]; exponent, model estimate", "result": 0.00481}, {"measurement": "Effect of Moderate hepatic impairment on OCA tauro-conjugation", "setting": "[3]; exponent, model estimate", "result": 1.05}, {"measurement": "Effect of Severe hepatic impairment on OCA tauro-conjugation", "setting": "[3]; exponent, model estimate", "result": 1.56}, {"measurement": "Ka: OCA first order rate constant of oral absorption", "setting": "[3]; [5]", "result": 5.32, "unit": "h⁻¹"}, {"measurement": "b16: OCA rate of conjugation with glycine", "setting": "[3]; [5]", "result": 1.44, "unit": "h⁻¹"}, {"measurement": "b18: OCA rate of conjugation with taurine", "setting": "[3]; [5]", "result": 0.312, "unit": "h⁻¹"}, {"measurement": "kout: Rate of fecal elimination of OCA", "setting": "[3]; [5]", "result": 0.612, "unit": "L/h"}, {"measurement": "t10: OCA transport rate from liver to sinusoidal space", "setting": "[3]; [5]", "result": 1698, "unit": "h⁻¹"}, {"measurement": "t34: OCA rate of absorption from gut to portal space", "setting": "[3]; [5]", "result": 0.857, "unit": "h⁻¹"}, {"measurement": "inhibition of CYP2C8", "setting": "CYP2C8", "result": "not an inhibitor"}, {"measurement": "fraction unbound", "setting": "Plasma protein binding", "result": "< 0.01"}]}
